The source of these data is article PMC8534003, “The Chemokine-Based Peptide, CXCL9(74-103), Inhibits Angiogenesis by Blocking Heparan Sulfate Proteoglycan-Mediated Signaling of Multiple Endothelial Growth Factors” (Cancers, 2021).

“Also recorded” adds a separate entry of the source.

Assay [1] relates to diabetes-induced vascular permeability, Sprague-Dawley rats. Nature of the assay: Retinal vascular permeability in streptozotocin-induced diabetic rats. The assay is classed as in vivo, rat. The settings on record: intravitreal, equimolar CXCL9(74-103) 30 µg or CXCL9(86-103) 18 µg, two weeks, n = 12–15. The method, then: Male Sprague-Dawley rats (210–240 g) were fasted overnight and injected intraperitoneally (i.p.) with streptozotocin (55 mg/kg body weight, dissolved in citrate buffer, pH 4.5) to induce diabetes. After 3 days, the animals were anesthetized, diabetes was confirmed and the vitreous of the right eye was injected with equimolar amounts of CXCL9(74-103) (30 µg), CXCL9(86-103) (18 µg) or PBS (5 µL/injection). Diabetes-induced breakdown of the blood-retinal barrier as a consequence of increased vascular permeability was evaluated in retinas two weeks after streptozotocin injection, as previously described. Briefly, 30 min prior to sacrifice, fluorescein isothiocyanate (FITC)-conjugated dextran of 3-5 kDa (Sigma-Aldrich) was intravenously (i.v.) injected. After collection of a blood sample, rats were perfused with PBS. The retinas were excised, weighed and homogenized. The fluorescence in the retina lysates was measured using a SpectraMax® Gemini™ XPS system. For normalization of the data, the following equation was used to express the obtained results: Retinal FITC-dextran (µg)/retinal weight (g) Plasma FITC-dextran concentration (µg/µL) × circulation time (h)

Assay [2] has as its system human microvascular endothelial cells (HMVECs). Nature of the assay: Endothelial cell proliferation assay (MTT or ATP lite). The assay is classed as cell-based. The settings on record: peptide 3 µM, 3 to 4 days, HMVECs, 1% FCS, mean ± SEM, n ≥ 4. As for the experimental part:
The ability of the CXCL9-derived peptides to inhibit growth factor-induced proliferation of endothelial cells was assessed. HMVECs were seeded at 5 × 10^3 cells/well in EBM™-2 medium containing 1% (v/v) FCS (proliferation medium). After settling of the cells, they were stimulated with EGF, VEGF165 (both 5 ng/mL) or FGF-2 (3 ng/mL) as a single stimulus or in combination with CXCL9(86-103) or CXCL9(74-103) at 0.3 or 3 µM in proliferation medium or left untreated. HMVECs were also treated with 0.3 or 3 µM of CXCL9(74-103) or 3 µM of CXCL9(86-103) alone to assess the effect of CXCL9-derived peptide treatment on spontaneous proliferation. After 3 to 4 days, a 3-(4,5-dimethylthiazol-2-yl)-2,5-diphenyl tetrazolium bromide (MTT) or ATP lite assay was performed. The ATP lite assay was performed according to the manufacturer’s instructions (Perkin Elmer, Waltham, MA). When MTT was used as substrate, the medium was replaced with 200 µL of MTT solution (RPMI without phenol red containing 0.4 g/L MTT) and the cells were incubated at 37 °C and 5% CO2 in the dark for 4 hours. Then, the MTT solution was discarded and the formed formazan crystals were dissolved in 200 µL acidic propanol [0.04 M HCl, 0.1% (v/v) NP-40 in isopropanol] under continuous shaking in the dark for 10 min. The optical densities were measured at 570 nm and 630 nm (reference wavelength).

The subject of assay [3] is heparan sulfate (HS) / VEGF165. The assay is described as follows: ELISA-like GAG binding assay, competition with VEGF165 for HS binding. Further details: species or system human. The conditions noted are these: HS 25 µg/mL, pH 7.2, 37 °C, 2 h, n = 5. As for the experimental part: The ability of the CXCL9-derived peptides to compete with VEGF165 for HS binding was assessed in an ELISA-like GAG binding assay. First, the GAG binding plates (Galen Laboratory Supplies, North Haven, CT, USA) were coated with 25 µg/mL HS (Iduron, Alderley Edge, UK) in standard assay buffer (SAB) [100 mM NaCl, 50 mM sodium acetate, 0.2% (v/v) Tween® 20 in ultrapure water, pH 7.2] at room temperature overnight. The plates were washed with SAB and blocked with blocking buffer [SAB supplemented with 0.2% (w/v) gelatin] at 37 °C for 1 h to prevent nonspecific binding. Then, dilutions of VEGF165 and the peptides, CXCL9(74-103) or CXCL9(86-103), were added and allowed to interact at 37 °C for 2 h. Unbound material was removed through washing and biotinylated polyclonal goat anti-human VEGF165 antibody (PeproTech) in blocking buffer was added to interact with HS-bound VEGF165 at 37 °C for 1 h. Following additional washing steps, detection was performed with streptavidin-horseradish peroxidase (HRP) (R&D Systems) in blocking buffer at 37 °C for 30 min and conversion of 3,3’,5,5’-tetramethylbenzidine (TMB) to a colorimetric signal in the presence of 0.015% (v/v) H2O2. The reaction was stopped by the addition of H2SO4 and the absorbance was measured at 450 nm. All incubation steps were performed in the dark.
On the technique in general: In an ELISA, binding on a coated surface is turned into a signal by an enzyme label.

The conditions of assay [4]: reference not given at the value; read-out: KD, heparin binding; cited from earlier work. An excerpt:
In our present study, we wanted to explore the potential of CXCL9(74-103), a high affinity GAG-binding peptide, to interfere with angiogenesis by targeting growth factor-induced signaling cascades and associated processes. […] The obtained KD value lies within the range of the concentrations that were applied in the different in vivo and in vitro assays reported here. FGF-2-mediated proliferation, chemotaxis and sprouting in vitro was diminished by CXCL9(74-103). Also in vivo, CXCL9(74-103) treatment attenuated FGF-2-mediated neovascularization in the Matrigel plug assay. The inhibitory mechanism responsible for countering FGF-2 could be that (1) by direct interaction with FGF-2, CXCL9(74-103) can t ...

Assay [5] deals with human microvascular endothelial cells (HMVECs). The assay is described as follows: xCELLigence adhesion assay. The assay is classed as cell-based. The conditions noted are these: VEGF165 50 ng/mL, peptide 3 µM, 1 h, gelatin coat; n = 2–6. As for the experimental part:
The wells of an E-plate (ACEA Biosciences, Inc.) were washed and coated with 0.1% (v/v) gelatin in phosphate-buffered saline (PBS) at 37 °C for 1 h. Following a washing step, wells were incubated with 0.1% (v/v) bovine serum albumin (BSA) in PBS at 37 °C for 1 h. After washing, 50 µL basal MCDB131 medium was added and the plate was allowed to equilibrate at 37 °C. HMVECs were harvested and seeded at 4 × 10^4 cells/well together with 50 ng/mL VEGF165 with or without 0.03, 0.3 or 3 µM of CXCL9(74-103) or 3 µM of CXCL9(86-103) in 100 µL control medium (vide supra). Real-time changes in electrical impedance depicted as cell indices, as measure for cell adhesion and spreading, were analyzed using the xCELLigence® RTCA DP System. The adhesion of HMVECs was analyzed 1 h after seeding.

The Kd is the equilibrium constant for the complex coming apart. For the sequence KKVLKVRKSQRSRQKKTT [CXCL9(86-103)], the “retinal vascular permeability (FITC-dextran leakage)” value in assay [1] is listed as “tended to decrease the vascular leakage, but this was not significant; also recorded: could not significantly improve diabetes-induced vascular leakage”. For the same sequence, the EGF-induced proliferation result in assay [2] (EGF 5 ng/mL) is reported as “could not significantly alter”. Also, in assay [2] (FGF-2 3 ng/mL), the FGF-2-induced proliferation entry was “significantly attenuated”. Further, the VEGF165-induced proliferation entry in assay [2] (VEGF165 5 ng/mL) is reported as “could not significantly alter”. In addition, the “inhibition of VEGF165 binding to HS” value in assay [3] (30-fold molar excess of peptide over VEGF165) is on record as “≈ 20%”; in assay [3] (300-fold molar excess of peptide over VEGF165) it was 40%. Also, the Kd in assay [4] was 0.82 µM. In addition, the “VEGF165-induced endothelial cell adhesion” value in assay [5] is “No effect on VEGF-induced adhesion”.
